In US6737383B1, “Herbicidal oxadiazolidines” (priority 1999, dated 2004):

Columns and labels:
duck salad = experiment: Test B flood test duck salad; assay type: in vivo, Heteranthera limosa
In short: (§1)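 Each value is a visual injury score relative to controls, with 10 meaning complete control and 0 no effect. Evaluation took place twelve to sixteen days after the 2-leaf-stage plants were treated and kept in the greenhouse.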

pigweed = experiment: Test B pre/postemergence pigweed; assay type: in vivo, Amaranthus retroflexus
In short: (§2)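 Test chemicals in a non-phytotoxic solvent mixture with surfactant were sprayed preemergence onto planted seeds and postemergence onto plants 2 to 18 cm tall (1- to 4-leaf stage). After twelve to sixteen days in a greenhouse, injury was visually rated against untreated controls from 0 (no effect) to 10 (complete control).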

bedstraw = experiment: Test B pre/postemergence bedstraw; assay type: in vivo, Galium aparine; details: Preemergence
In short: as §2

wild oat = experiment: Test B pre/postemergence wild oat; assay type: in vivo, Avena fatua
In short: as §2

smallflower flatsedge = experiment: Test B flood test smallflower flatsedge; assay type: in vivo, Cyperus difformis
In short: as §1

giant foxtail = experiment: Test B pre/postemergence giant foxtail; assay type: in vivo, Setaria faberii
In short: as §2

bamyardgrass = experiment: Test B flood test barnyardgrass; assay type: in vivo, Echinochloa crus-galli
In short: as §1

purple nutsedge = experiment: Test B pre/postemergence purple nutsedge; assay type: in vivo, Cyperus rotundus
In short: as §2

velvetleaf = experiment: Test B pre/postemergence velvetleaf; assay type: in vivo, Abutilon theophrasti
In short: as §2

soybean = experiment: Test B pre/postemergence soybean; assay type: in vivo, Glycine max
In short: as §2

wheat = experiment: Test B pre/postemergence wheat; assay type: in vivo, Triticum aestivum
In short: as §2

rice = experiment: Test B flood test rice; assay type: in vivo, Oryza sativa
In short: as §1

sugar beet = experiment: Test B pre/postemergence sugar beet; assay type: in vivo, Beta vulgaris
In short: as §2

surinam grass = experiment: Test B pre/postemergence surinam grass; assay type: in vivo, Brachiaria decumbens
In short: as §2

corn = experiment: Test B pre/postemergence corn; assay type: in vivo, Zea mays
In short: as §2

cocklebur = experiment: Test B pre/postemergence cocklebur; assay type: in vivo, Xanthium strumarium
In short: as §2

rape = experiment: Test B pre/postemergence rape; assay type: in vivo, Brassica napus
In short: as §2

morningglory = experiment: Test B pre/postemergence morningglory; assay type: in vivo, Ipomoea hederacea
In short: as §2

crabgrass = experiment: Test B pre/postemergence crabgrass; assay type: in vivo, Digitaria sanguinalis
In short: as §2

blackgrass = experiment: Test B pre/postemergence blackgrass; assay type: in vivo, Alopecurus myosuroides
In short: as §2

[1] = Rate 62 g/ha, flood test species, Pre-emergence, visual evaluation after twelve to sixteen days
[2] = Rate 125 g/ha, under heading Pre-emergence, flood test species, visual evaluation after twelve to sixteen days
[3] = Rate 250 g/ha, Pre-emergence (flood test species), scale 0 to 10, 0 is no effect, 10 is complete control
[4] = Rate 500 g/ha, Pre-emergence section of Table B, 0 to 10 scale (0 no effect, 10 complete control)
[5] = Postemergence, Rate 125 g/ha, scale of 0 to 10 where 0 is no effect and 10 is complete control
[6] = Postemergence, Rate 250 g/ha, scale of 0 to 10, 0 is no effect, 10 is complete control
[7] = Postemergence, Rate 500 g/ha, scale of 0 to 10 where 0 is no effect and 10 is complete control
[8] = Preemergence, Rate 62 g/ha, scale 0 to 10 (0 no effect, 10 complete control)
[9] = Preemergence, Rate 125 g/ha, scale of 0 to 10 where 0 is no effect and 10 is complete control
[10] = Preemergence, Rate 500 g/ha, scale of 0 to 10 where 0 is no effect and 10 is complete control
[11] = Postemergence, Rate 62 g/ha, scale of 0 to 10, 0 is no effect, 10 is complete control

COC(C)n1c(=O)on(C(=O)N(c2ccc(Cl)cc2)C(C)C)c1=O (stereo not shown) [Compound 592]
Plant response rating, Ducksalad (0 to 10 scale, 0 is no effect, 10 is complete control) (duck salad; [1]): 0 | Ducksalad plant response rating (0 to 10 scale, 0 is no effect, 10 is complete control) (duck salad; [2]): 0 | Ducksalad plant response rating (duck salad; [3]): 0 | Ducksalad plant response rating (duck salad; [4]): 0 | Plant response rating, Redroot pigweed (pigweed; [5]): 0 | Redroot pigweed plant response rating (pigweed; [6]): 0 | Plant response rating, Redroot pigweed (pigweed; [7]): 0 | Redroot pigweed plant response rating (pigweed; [8]): 0 | Redroot pigweed plant response rating (pigweed; [9]): 0 | Plant response rating, Redroot pigweed (pigweed; [10]): 0 | Bedstraw plant response rating (bedstraw; Rate 62 g/ha, scale 0 to 10 (0 no effect, 10 complete control)): 0 | Bedstraw plant response rating (bedstraw; Rate 125 g/ha, scale of 0 to 10 where 0 is no effect and 10 is complete control): 0 | Plant response rating, Wild oats (wild oat; [5]): 0 | Wild oats plant response rating (wild oat; [6]): 0 | Plant response rating, Wild oats (wild oat; [7]): 0 | Wild oats plant response rating (wild oat; [8]): 0 | Wild oats plant response rating (wild oat; [9]): 0 | Plant response rating, Wild oats (wild oat; [10]): 0 | Plant response rating, S. Flatsedge (0 to 10 scale, 0 is no effect, 10 is complete control) (smallflower flatsedge; [1]): 0 | S. Flatsedge plant response rating (0 to 10 scale, 0 is no effect, 10 is complete control) (smallflower flatsedge; [2]): 0 | S. Flatsedge plant response rating (smallflower flatsedge; [3]): 0 | S. Flatsedge plant response rating (smallflower flatsedge; [4]): 0 | Giant foxtail plant response rating (giant foxtail; [11]): 0 | Plant response rating, Giant foxtail (giant foxtail; [5]): 0 | Giant foxtail plant response rating (giant foxtail; [6]): 0 | Plant response rating, Giant foxtail (giant foxtail; [7]): 0 | Giant foxtail plant response rating (giant foxtail; [8]): 0 | Giant foxtail plant response rating (giant foxtail; [9]): 0 | Plant response rating, Giant foxtail (giant foxtail; [10]): 0 | Plant response rating, Barnyardgrass (0 to 10 scale, 0 is no effect, 10 is complete control) (bamyardgrass; [1]): 0 | Barnyardgrass plant response rating (0 to 10 scale, 0 is no effect, 10 is complete control) (bamyardgrass; [2]): 0 | Barnyardgrass plant response rating (bamyardgrass; [3]): 0 | Barnyardgrass plant response rating (bamyardgrass; [4]): 0 | Nutsedge plant response rating (purple nutsedge; [11]): 0 | Plant response rating, Nutsedge (purple nutsedge; [5]): 0 | Nutsedge plant response rating (purple nutsedge; [6]): 0 | Plant response rating, Nutsedge (purple nutsedge; [7]): 0 | Nutsedge plant response rating (purple nutsedge; [8]): 0 | Nutsedge plant response rating (purple nutsedge; [9]): 0 | Plant response rating, Nutsedge (purple nutsedge; [10]): 0 | Plant response rating, Velvetleaf (velvetleaf; [5]): 0 | Velvetleaf plant response rating (velvetleaf; [6]): 0 | Plant response rating, Velvetleaf (velvetleaf; [7]): 0 | Velvetleaf plant response rating (velvetleaf; [8]): 0 | Velvetleaf plant response rating (velvetleaf; [9]): 0 | Plant response rating, Velvetleaf (velvetleaf; [10]): 0 | Plant response rating, Soybean (soybean; [5]): 1 | Soybean plant response rating (soybean; [6]): 1 | Plant response rating, Soybean (soybean; [7]): 1 | Soybean plant response rating (soybean; [8]): 0 | Soybean plant response rating (soybean; [9]): 0 | Plant response rating, Soybean (soybean; [10]): 0 | Plant response rating, Wheat (wheat; [5]): 0 | Wheat plant response rating (wheat; [6]): 0 | Plant response rating, Wheat (wheat; [7]): 0 | Wheat plant response rating (wheat; [8]): 0 | Wheat plant response rating (wheat; [9]): 0 | Plant response rating, Wheat (wheat; [10]): 0 | Plant response rating, Rice (0 to 10 scale, 0 is no effect, 10 is complete control) (rice; [1]): 0 | Rice plant response rating (0 to 10 scale, 0 is no effect, 10 is complete control) (rice; [2]): 0 | Rice plant response rating (rice; [3]): 0 | Rice plant response rating (rice; [4]): 0 | Plant response rating, Sugarbeets (sugar beet; [5]): 0 | Sugarbeets plant response rating (sugar beet; [6]): 0 | Plant response rating, Sugarbeets (sugar beet; [7]): 0 | Sugarbeets plant response rating (sugar beet; [8]): 0 | Sugarbeets plant response rating (sugar beet; [9]): 0 | Plant response rating, Sugarbeets (sugar beet; [10]): 0 | B. signalgrass plant response rating (surinam grass; [11]): 0 | Plant response rating, B. signalgrass (surinam grass; [5]): 0 | B. signalgrass plant response rating (surinam grass; [6]): 0 | Plant response rating, B. signalgrass (surinam grass; [7]): 0 | B. signalgrass plant response rating (surinam grass; [8]): 0 | B. signalgrass plant response rating (surinam grass; [9]): 0 | B. signalgrass plant response rating (0 to 10 scale, 0 is no effect, 10 is complete control) (surinam grass; Preemergence, Rate 250 g/ha): 0 | B. signalgrass plant response rating (surinam grass; [10]): 0 | Corn plant response rating (corn; [11]): 0 | Plant response rating, Corn (corn; [5]): 0 | Corn plant response rating (corn; [6]): 0 | Plant response rating, Corn (corn; [7]): 0 | Corn plant response rating (corn; [8]): 0 | Corn plant response rating (corn; [9]): 0 | Corn plant response rating (0 to 10 scale) (corn; Preemergence, Rate 250 g/ha): 0 | Plant response rating, Corn (corn; [10]): 0 | Cocklebur plant response rating (cocklebur; [11]): 0 | Plant response rating, Cocklebur (cocklebur; [5]): 0 | Cocklebur plant response rating (cocklebur; [6]): 0 | Plant response rating, Cocklebur (cocklebur; [7]): 0 | Cocklebur plant response rating (cocklebur; [8]): 0 | Cocklebur plant response rating (cocklebur; [9]): 0 | Cocklebur plant response rating (0 to 10 scale) (cocklebur; Preemergence, Rate 250 g/ha): 0 | Plant response rating, Cocklebur (cocklebur; [10]): 0 | Rape plant response rating (rape; [11]): 0 | Plant response rating, Rape (rape; [5]): 0 | Rape plant response rating (rape; [6]): 0 | Plant response rating, Rape (rape; [7]): 0 | Rape plant response rating (rape; [8]): 0 | Rape plant response rating (rape; [9]): 0 | Plant response rating, Rape (rape; [10]): 0 | Morningglory plant response rating (morningglory; [11]): 1 | Plant response rating, Morningglory (morningglory; [5]): 1 | Morningglory plant response rating (morningglory; [6]): 2 | Plant response rating, Morningglory (morningglory; [7]): 2 | Morningglory plant response rating (morningglory; [8]): 0 | Morningglory plant response rating (morningglory; [9]): 0 | Plant response rating, Morningglory (morningglory; [10]): 0 | Crabgrass plant response rating (crabgrass; [11]): 0 | Plant response rating, Crabgrass (crabgrass; [5]): 0 | Crabgrass plant response rating (crabgrass; [6]): 0 | Plant response rating, Crabgrass (crabgrass; [7]): 2 | Crabgrass plant response rating (crabgrass; [8]): 0 | Crabgrass plant response rating (crabgrass; [9]): 0 | Plant response rating, Crabgrass (crabgrass; [10]): 2 | Blackgrass plant response rating (blackgrass; [11]): 0 | Plant response rating, Blackgrass (blackgrass; [5]): 0 | Blackgrass plant response rating (blackgrass; [6]): 0 | Plant response rating, Blackgrass (blackgrass; [7]): 0 | Blackgrass plant response rating (blackgrass; [8]): 0 | Blackgrass plant response rating (blackgrass; [9]): 0 | Blackgrass plant response rating (0 to 10 scale) (blackgrass; Preemergence, Rate 250 g/ha): 0 | Blackgrass plant response rating (blackgrass; [10]): 0
